Reference: patent US20240003908A1, “POLYOL BIOMARKERS FOR CONGENITAL DISORDERS OF GLYCOSYLATION” (Mayo Foundation for Medical Education and Research, priority 2020, published 2024)
“And” between values parts separate entries of the source, which are not always exact repeats. Equal entries are not always repeated.

How the values were obtained:
[1] = tested on: PMM-deficient fibroblasts; assay: Multiplexed proteomics of PMM-deficient fibroblasts treated with epalrestat or vehicle; assay type: cell-based, human
Excerpt: Proteomics and glycoproteomics: Cell were scraped in PBS, pH 7.4 and sonicated with a tip sonicator at 40% amplitude for 3 cycles of 10 seconds each. Equal amount of proteins were digested with trypsin as described elsewhere (Mun et al., Anal Chem 92:14466-14475, 2020). The digested peptides were labeled with tandem mass tag (TMT) reagents as per the manufacturer's instructions (ThermoFisher). Labelled samples were pooled, and either size-exclusion chromatography or basic pH reversed-phase fractionation was performed. An aliquot of dried peptides was resuspended in 100 μL of 0.1% formic acid and injected into Superdex peptide 10/300 column (GE Healthcare). Twenty-one (21) early fractions were collected starting at 10 minutes after injection (total run time of 130 minutes) and analyzed by LC-MS/MS as described elsewhere (Mun et al., supra). Another aliquot of total peptides was cleaned up by C18 TopTips (Glygen) and fractionated by bRPLC on a reversed phase C18 column (4.6×100 mm column). Twelve (12) fractions were dried and re-suspended in 0.1% formic acid for LC-MS/MS analysis.
A modification of the LC-MS/MS parameters described by Mun et al. (supra) were used. Specifically, 21 early fractions from SEC and 12 fractions of bRPLC were analyzed by Orbitrap Exploris480 mass spectrometer (Thermo Fisher Scientific) coupled to an EASY-Spray column (Thermo Fisher Scientific). Every run was 130 minutes with a flow rate of 300 nL/minute. The gradient used for separation was: equilibration at 3% solvent B from 0 to 4 minutes, 3% to 10% sol B from 4 to 10 minutes, 10% to 35% sol B from 10.1 to 125 minutes, and 35% to 80% sol B from […]. All experiments were done in DDA mode with the top 15 ions isolated at a window of 0.7 m/z and a default charge state of +2. Charge states ranging from +2 to +7 were considered for MS/MS events. Stepped collision energy was applied to precursors at normalized collision energies of 15, 25, and 40. The MS precursor mass range was set to 375 to 2000 m/z and 100 to 2000 for MS/MS. The automatic gain control for MS and MS/MS were 1×10^6 and 1×10^5 and the injection times to reach AGC were 50 ms and 250 ms, respectively. 60 second dynamic exclusion was applied. Data acquisition was performed with the option of Lock mass (441.1200025 m/z) for all data.
Database searching and analysis: The publicly available software pGlyco Version 2.2.0 was used (Zeng et al., Sci Rep 6:25102, 2016; and Liu et al., Nat Commun 8:438, 2017). A glycan database containing 8,092 entries and Uniprot Human Reviewed protein sequences (20,432 entries) were used as protein sequence fasta files. […] Reporter ion quantification was performed in Proteome Discoverer 2.5 using “reporter ion quantifier” node and Ids were matched with quantitation on a scan-to-scan basis (MS/MS). […]

[2] = tested on: urine sorbitol; assay: Urine sorbitol (GC/MS) in a PMM2-CDG pediatric patient on oral epalrestat therapy; assay type: in vivo, human
Protocol: Clinical studies: Epalrestat was used as an N of 1 study for a single pediatric patient with PMM2-CDG. An open label, single patient compassionate use study designed to assess the safety and tolerability of oral epalrestat therapy in a child with PMM2-CDG. The patient received […]. Concomitant medications, vital signs, blood draw for serum chemistry and hematology, and blood levels of epalrestat were collected at each study visit during a 6 month period to evaluate the safety and tolerability of oral epalrestat therapy in a child with PMM2-CDG. The Nijmegen Pediatric CDG Rating Scale (NPCRS) assessment was administered at the start of the study and at 6 months. Urine polyols were collected at the start, at 4 months, and at 6 months of therapy, and were measured as described elsewhere (Jansen et al., Clin Chim Acta 1986, 157:277-294). Briefly, 200 μl urine specimens were spiked with a mixture of labeled internal standards, allowed to equilibrate, and evaporated. […] Specimens were analyzed by GC/MS, selected ion monitoring using ammonia chemical ionization and a stable isotope dilution method. In general, the following protocol was used: • Creatinine (CR) values (mg/dL) were determined for all samples. • Multiplication factors were calculated for each patient sample. • 100 μL of Polyol QC Mix for the QC Standard and 100 μL water were pipetted into a labeled 16×100 screw-cap glass tube. • 200 μL each of low control and high control were pipetted into corresponding labeled 16×100 mm screw-cap glass tubes. • 200 μL of each patient sample was pipetted into a corresponding labeled 16×100 mm screw cap glass tube. […]
Urine sorbitol and mannitol levels also were quantified using similar processing of samples and GC/MS settings, monitoring ions specific for sorbitol and mannitol for peak area ratio calculations.
Patient assessment: Prior to the first dose of epalrestat and at 1, 2, 3, 6, 8, 9, 12 months during treatment, concomitant medications and vital signs were recorded and the patient was evaluated using the NPCRS. […]

## CC(/C=C1\SC(=S)N(CC(=O)O)C1=O)=C\c1ccccc1 [epalrestat]
[1]; epalrestat-treated vs untreated PMM2-CDG fibroblasts
  Sorbitol dehydrogenase (SORD) increase in abundance: 11%
[1]; of the 13 changed proteins
  number of proteins increased post treatment (30% cutoff): 12
[1]; paired analysis before and after epalrestat
  number of proteins different post-treatment with a 30% or bigger change cutoff: 13 proteins
[1]; paired analysis before and after epalrestat, P1-P6 fibroblasts
  number of proteins different post-treatment: 628 proteins
[2]; 6 months of epalrestat therapy, prior to treatment 19.93, controls <5
  urine sorbitol level: 6.2 mmol/mol creatinine and 6.20 mmol/mol creatinine
[2]; after 3 months of epalrestat therapy, before therapy 19.93, controls <5
  urine sorbitol level: 5.78 mmol/mol creatinine
[2]; after 4 months of epalrestat treatment, prior to treatment 19.93, controls <5
  urine sorbitol level: 5.0 mmol/mol creatinine
